# In US20020106342A1, “Methods for treating atopic disorders” (priority 2000, published 2002):
# Test system: skin fungal conditions
# Assay: Patients with skin fungal conditions treated with griseovulvin and an appropriate antibiotic, emollients ceased (Example 6)
# Type: in vivo, human
# Source text: Most patients received an antihistamine for the first ten days to control itch. The patients ceased the use of lotions and other emollients, as well as the use of local and systemic corticosteroids.
structure (smiles),measurement,setting,value
COC1=CC(=O)C[C@@H](C)[C@]12Oc1c(Cl)c(OC)cc(OC)c1C2=O [griseovulvin],"Appearance of ""dry skin""","Patient A, after 35 days of treatment",cleared up considerably
same,Fungus on skin,"Patient B, one week later",improved dramatically
same,Fungus on skin,"Patient C, after treatment",significantly improved
same,Fungus growth on back of neck,"Patient D, after seven weeks",significantly diminished
same,Fungal condition of skin,"Patient F, after seven weeks of treatment",improving and peeling off
same,Fungal infection tinea barbae,"Patient G, after seven weeks",significantly cleared
same,Skin with hair follicles infected by fungus,"Patient H, after nine weeks of treatment",dramatically improved
